Measurements from the supplement of paper PMC6045584.
± gives the standard deviation of the averaged measurements.

Legend:
CABOZANTINIB = compound: COc1cc2nccc(Oc3ccc(NC(=O)C4(C(=O)Nc5ccc(F)cc5)CC4)cc3)c2cc1OC [CABOZANTINIB]; test: surviving fraction relative to DMSO-only wells; higher = less growth inhibition; conditions: exposure time: 5 days
Procedure, shortened: (§1)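 After seeding at 250–500 cells per well in 384-well plates and a 24-hour wait, log-phase tumour cell lines were exposed without interruption for five days to inhibitors at 0.5, 1, 5, 10, 50, 100, 500 and 1000 nM. CellTiter-Glo luminescence was recorded after 10 minutes at room temperature. Viability is reported as surviving fraction, the luminescence normalised to the median of DMSO-only wells.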

BMN-673 = compound: Cn1ncnc1[C@H]1c2n[nH]c(=O)c3cc(F)cc(c23)N[C@@H]1c1ccc(F)cc1 [BMN-673]; test: as above; conditions: exposure time: 5 days
Procedure, shortened: as §1

Row | Test System | surviving fraction (CABOZANTINIB; 0.5 nM) | surviving fraction (CABOZANTINIB; 1 nM) | surviving fraction (CABOZANTINIB; 5 nM) | surviving fraction (CABOZANTINIB; 10 nM) | surviving fraction (CABOZANTINIB; 50 nM) | surviving fraction (CABOZANTINIB; 100 nM) | surviving fraction (CABOZANTINIB; 500 nM) | surviving fraction (CABOZANTINIB; 1000 nM) | surviving fraction (BMN-673; 0.5 nM) | surviving fraction (BMN-673; 1 nM) | surviving fraction (BMN-673; 5 nM) | surviving fraction (BMN-673; 10 nM) | surviving fraction (BMN-673; 50 nM) | surviving fraction (BMN-673; 100 nM) | surviving fraction (BMN-673; 500 nM) | surviving fraction (BMN-673; 1000 nM)
1 | NOS1 BONE | 1.09 ± 0.062 | 1.08 ± 0.012 | 1.12 ± 0.078 | 1.16 ± 0.073 | 0.944 ± 0.029 | 0.841 ± 0.04 | 0.68 ± 0.077 | 0.579 ± 0.041 | 1.1 ± 0.058 | 0.953 ± 0.093 | 0.683 ± 0.026 | 0.66 ± 0.066 | 0.633 ± 0.085 | 0.564 ± 0.051 | 0.551 ± 0.042 | 0.552 ± 0.026
2 | NY BONE | 0.9253 ± 0.009 | 0.98 ± 0.036 | 1.02 ± 0.016 | 0.989 ± 0.024 | 0.9377 ± 0.0067 | 0.887 ± 0.011 | 0.784 ± 0.022 | 0.768 ± 0.026 | 1.019 ± 0.0087 | 1.01 ± 0.025 | 1.01 ± 0.037 | 0.934 ± 0.056 | 0.928 ± 0.047 | 0.879 ± 0.033 | 0.501 ± 0.011 | 0.257 ± 0.014
3 | OS25HAL BONE | 0.957 ± 0.017 | 0.963 ± 0.02 | 1.02 ± 0.021 | 0.93 ± 0.022 | 0.941 ± 0.041 | 0.875 ± 0.029 | 0.8397 ± 0.0068 | 0.806 ± 0.068 | 1.1 ± 0.034 | 1.01 ± 0.037 | 0.96 ± 0.063 | 0.994 ± 0.017 | 0.91 ± 0.06 | 0.812 ± 0.014 | 0.327 ± 0.02 | 0.178 ± 0.021
4 | OSHN BONE | 1.033 ± 0.005 | 1.024 ± 0.0035 | 1.03 ± 0.011 | 1.02 ± 0.0032 | 1.006 ± 0.0085 | 0.958 ± 0.02 | 0.928 ± 0.015 | 0.908 ± 0.027 | 1.08 ± 0.024 | 1.04 ± 0.016 | 0.996 ± 0.023 | 0.9107 ± 0.004 | 0.742 ± 0.011 | 0.573 ± 0.081 | 0.197 ± 0.012 | 0.145 ± 0.009
5 | PCI30 HEADNECK | 0.86 ± 0.039 | 0.864 ± 0.05 | 0.954 ± 0.066 | 1.07 ± 0.048 | 1 ± 0.019 | 1.03 ± 0.057 | 0.841 ± 0.036 | 0.84 ± 0.15 | 1.01 ± 0.071 | 1.04 ± 0.092 | 0.91 ± 0.063 | 0.737 ± 0.056 | 0.585 ± 0.025 | 0.495 ± 0.0052 | 1.04 ± 0.025 | 1.08 ± 0.069
6 | RDES SOFT TISSUE | 1.2 ± 0.077 | 1.09 ± 0.1 | 1.21 ± 0.064 | 1.13 ± 0.083 | 1.23 ± 0.12 | 1.09 ± 0.076 | 1.1 ± 0.03 | 1.22 ± 0.22 | 1.16 ± 0.1 | 1.38 ± 0.055 | 1.07 ± 0.022 | 1.09 ± 0.093 | 0.472 ± 0.077 | 0.137 ± 0.011 | 0.035 ± 0.001 | 0.0337 ± 0.0025
7 | S68 BREAST | 1.05 ± 0.1 | 0.948 ± 0.075 | 0.937 ± 0.071 | 1.32 ± 0.15 | 1.2 ± 0.23 | 1.24 ± 0.41 | 0.986 ± 0.24 | 0.889 ± 0.23 | 1.17 ± 0.16 | 0.724 ± 0.12 | 0.602 ± 0.18 | 0.533 ± 0.095 | 0.445 ± 0.17 | 0.378 ± 0.059 | 0.357 ± 0.032 | 0.271 ± 0.054
8 | SAOS2 BONE | 1.13 ± 0.038 | 1.12 ± 0.069 | 1.18 ± 0.12 | 1.14 ± 0.015 | 1.17 ± 0.14 | 1.14 ± 0.14 | 0.993 ± 0.073 | 1.01 ± 0.14 | 1.05 ± 0.058 | 1 ± 0.029 | 0.999 ± 0.077 | 0.831 ± 0.069 | 0.675 ± 0.018 | 0.489 ± 0.047 | 0.285 ± 0.022 | 0.219 ± 0.047
9 | SCC003 HEADNECK | 0.921 ± 0.063 | 0.878 ± 0.055 | 0.97 ± 0.02 | 0.965 ± 0.047 | 1.08 ± 0.011 | 1.04 ± 0.029 | 0.98 ± 0.03 | 0.936 ± 0.1 | 1.06 ± 0.053 | 1.07 ± 0.035 | 1.04 ± 0.015 | 1.03 ± 0.044 | 0.913 ± 0.019 | 0.713 ± 0.059 | 0.588 ± 0.012 | 0.475 ± 0.066
10 | SCC36 HEADNECK | 1.03 ± 0.092 | 0.961 ± 0.074 | 1.09 ± 0.066 | 1.02 ± 0.032 | 1.1 ± 0.09 | 1.07 ± 0.073 | 1.07 ± 0.11 | 0.88 ± 0.081 | 1.13 ± 0.041 | 0.988 ± 0.087 | 0.95 ± 0.15 | 0.886 ± 0.025 | 0.77 ± 0.089 | 0.586 ± 0.0076 | 0.436 ± 0.056 | 0.352 ± 0.07
11 | SCC47 HEADNECK | 0.891 ± 0.022 | 0.894 ± 0.019 | 1.06 ± 0.062 | 1.03 ± 0.16 | 1.05 ± 0.14 | 1.08 ± 0.069 | 0.844 ± 0.025 | 0.922 ± 0.041 | 1.1 ± 0.089 | 1.13 ± 0.13 | 1.13 ± 0.015 | 1.12 ± 0.058 | 1.12 ± 0.039 | 1.03 ± 0.062 | 0.937 ± 0.1 | 0.784 ± 0.1
12 | SCC90 HEADNECK | 0.858 ± 0.053 | 0.819 ± 0.089 | 0.9093 ± 0.0042 | 0.997 ± 0.086 | 1.09 ± 0.17 | 1.05 ± 0.15 | 0.852 ± 0.081 | 0.874 ± 0.087 | 1.05 ± 0.046 | 1.02 ± 0.031 | 1.01 ± 0.067 | 1.02 ± 0.059 | 0.813 ± 0.04 | 0.8 ± 0.13 | 1.17 ± 0.15 | 1.15 ± 0.033
13 | SG27 HEADNECK | 1.02 ± 0.036 | 1.06 ± 0.021 | 0.971 ± 0.054 | 0.996 ± 0.1 | 1.14 ± 0.079 | 1.03 ± 0.13 | 0.975 ± 0.14 | 0.9483 ± 0.007 | 1.15 ± 0.04 | 1.08 ± 0.11 | 1.06 ± 0.046 | 0.978 ± 0.12 | 1.02 ± 0.17 | 0.927 ± 0.12 | 0.917 ± 0.038 | 0.877 ± 0.16
14 | SG28 HEADNECK | 1.07 ± 0.047 | 1.12 ± 0.061 | 0.968 ± 0.099 | 0.959 ± 0.023 | 1 ± 0.06 | 1 ± 0.16 | 1.06 ± 0.058 | 1.19 ± 0.26 | 1.09 ± 0.14 | 1.064 ± 0.0085 | 1.12 ± 0.13 | 1.06 ± 0.012 | 1.01 ± 0.12 | 0.996 ± 0.065 | 1.01 ± 0.15 | 1.01 ± 0.074
15 | SG31 HEADNECK | 1.1 ± 0.21 | 1.07 ± 0.2 | 0.981 ± 0.073 | 0.97 ± 0.14 | 1.07 ± 0.24 | 0.97 ± 0.07 | 1.1 ± 0.067 | 1.11 ± 0.082 | 1.18 ± 0.14 | 1.12 ± 0.028 | 1.08 ± 0.24 | 0.911 ± 0.15 | 0.969 ± 0.046 | 0.787 ± 0.09 | 0.916 ± 0.064 | 0.751 ± 0.046
16 | SG32 HEADNECK | 1.06 ± 0.18 | 1 ± 0.17 | 0.922 ± 0.1 | 1.04 ± 0.29 | 0.901 ± 0.1 | 0.961 ± 0.13 | 0.968 ± 0.1 | 0.711 ± 0.05 | 1.13 ± 0.067 | 0.975 ± 0.17 | 1.08 ± 0.29 | 0.985 ± 0.094 | 0.872 ± 0.12 | 1.22 ± 0.82 | 0.622 ± 0.0068 | 0.49 ± 0.044
